Results reported in article PMC3855799 (PLoS ONE, 2013).
Values joined by “and” are separate entries in the source; they are usually repeats but may differ in a detail not shown here. Equal entries are not always repeated.

Biological target: hNav1.7 alpha subunit (Homo sapiens, UniProt Q15858)
Assay: Electrophysiology using Sophion QPatch: inhibition of hNav1.7 currents
Format: cell-based
Details: QPatch 16X whole cell voltage clamp, hNav1.7 alpha HEK 293; holding -80 mV, -120mV for 100ms, step to 0mV; peak inward current; cumulative doses 100pM to 10µM, 10 minutes per dose; extracellular buffer pH 7.4 + 0.1% BSA; n = 9-11 (given for HwTx-IV(acid)); spread type not stated; read-out: IC50 on Nav1.7
Protocol: Electrophysiology using Sophion QPatch^TM
hNav1.7 alpha HEK 293 cell line (NM_002977.2) was obtained from Millipore and cells were cultured in a 50/50 mix of DMEM and Hams F-12 growth media supplemented with 10% FBS. Cells were passaged by Detachin (Genlantis) treatment (5 minutes), seeded 48-72 hours prior to experiments and used between passage 5 and 10. Cells were harvested at 70% confluency and resuspended by trituration in 8ml of Ex-cell ACF CHO serum free media (Sigma) + 20mM HEPES giving a cell density of 2-3x10^6cells/ml.
Solutions for electrophysiology: Extracellular solution contained (in mM) NaCl (145), KCl (2), CaCl2 (2), MgCl2 (1), HEPES (10), pH 7.4 with NaOH, osmolarity adjusted to 300 mOsm with sucrose. Intracellular solution contained (in mM), CsF (140), NaCl (10), EGTA (1), HEPES (10), pH 7.2 with CsOH, osmolarity adjusted to 325 mOsm with sucrose.
Serial dilutions were made in extracellular buffer + 0.1% BSA. Cumulative dose response curves were constructed with doses of 1e-10 to 1e-5M (100pM to 10µM). Each dose was applied for 10 minutes with 3x5µl compound additions spaced 2 seconds apart (Note that complete solution exchange is achieved with volumes of ~2µl).
Nav1.7 currents were measured using the automated electrophysiology platform Qpatch 16X (Sophion) in single hole configuration. […] To measure Nav1.7 currents, membrane potential was held at -80 mV then stepped to -120mV for 100ms to remove fast inactivation, followed by a step to 0mV for 10ms to activate Nav1.7 then returned to -120mV for 100ms. This voltage protocol was repeated at a rate of 0.2Hz with a the membrane potential held at -80mV between sweeps. Data were sampled at 10kHz and filtered using a 4 pole Bessel filter at 3kHz. P/N leak subtraction was utilized with a leak sweep of -10%. Series resistance was compensated 75% as standard. Liquid junction potentials were not corrected.
Peak inward current at 0mV was normalised to cell capacitance (pA/pF). […]

Sequence of hNav1.7 alpha subunit (Q15858 1-1977 isoform Q15858-3): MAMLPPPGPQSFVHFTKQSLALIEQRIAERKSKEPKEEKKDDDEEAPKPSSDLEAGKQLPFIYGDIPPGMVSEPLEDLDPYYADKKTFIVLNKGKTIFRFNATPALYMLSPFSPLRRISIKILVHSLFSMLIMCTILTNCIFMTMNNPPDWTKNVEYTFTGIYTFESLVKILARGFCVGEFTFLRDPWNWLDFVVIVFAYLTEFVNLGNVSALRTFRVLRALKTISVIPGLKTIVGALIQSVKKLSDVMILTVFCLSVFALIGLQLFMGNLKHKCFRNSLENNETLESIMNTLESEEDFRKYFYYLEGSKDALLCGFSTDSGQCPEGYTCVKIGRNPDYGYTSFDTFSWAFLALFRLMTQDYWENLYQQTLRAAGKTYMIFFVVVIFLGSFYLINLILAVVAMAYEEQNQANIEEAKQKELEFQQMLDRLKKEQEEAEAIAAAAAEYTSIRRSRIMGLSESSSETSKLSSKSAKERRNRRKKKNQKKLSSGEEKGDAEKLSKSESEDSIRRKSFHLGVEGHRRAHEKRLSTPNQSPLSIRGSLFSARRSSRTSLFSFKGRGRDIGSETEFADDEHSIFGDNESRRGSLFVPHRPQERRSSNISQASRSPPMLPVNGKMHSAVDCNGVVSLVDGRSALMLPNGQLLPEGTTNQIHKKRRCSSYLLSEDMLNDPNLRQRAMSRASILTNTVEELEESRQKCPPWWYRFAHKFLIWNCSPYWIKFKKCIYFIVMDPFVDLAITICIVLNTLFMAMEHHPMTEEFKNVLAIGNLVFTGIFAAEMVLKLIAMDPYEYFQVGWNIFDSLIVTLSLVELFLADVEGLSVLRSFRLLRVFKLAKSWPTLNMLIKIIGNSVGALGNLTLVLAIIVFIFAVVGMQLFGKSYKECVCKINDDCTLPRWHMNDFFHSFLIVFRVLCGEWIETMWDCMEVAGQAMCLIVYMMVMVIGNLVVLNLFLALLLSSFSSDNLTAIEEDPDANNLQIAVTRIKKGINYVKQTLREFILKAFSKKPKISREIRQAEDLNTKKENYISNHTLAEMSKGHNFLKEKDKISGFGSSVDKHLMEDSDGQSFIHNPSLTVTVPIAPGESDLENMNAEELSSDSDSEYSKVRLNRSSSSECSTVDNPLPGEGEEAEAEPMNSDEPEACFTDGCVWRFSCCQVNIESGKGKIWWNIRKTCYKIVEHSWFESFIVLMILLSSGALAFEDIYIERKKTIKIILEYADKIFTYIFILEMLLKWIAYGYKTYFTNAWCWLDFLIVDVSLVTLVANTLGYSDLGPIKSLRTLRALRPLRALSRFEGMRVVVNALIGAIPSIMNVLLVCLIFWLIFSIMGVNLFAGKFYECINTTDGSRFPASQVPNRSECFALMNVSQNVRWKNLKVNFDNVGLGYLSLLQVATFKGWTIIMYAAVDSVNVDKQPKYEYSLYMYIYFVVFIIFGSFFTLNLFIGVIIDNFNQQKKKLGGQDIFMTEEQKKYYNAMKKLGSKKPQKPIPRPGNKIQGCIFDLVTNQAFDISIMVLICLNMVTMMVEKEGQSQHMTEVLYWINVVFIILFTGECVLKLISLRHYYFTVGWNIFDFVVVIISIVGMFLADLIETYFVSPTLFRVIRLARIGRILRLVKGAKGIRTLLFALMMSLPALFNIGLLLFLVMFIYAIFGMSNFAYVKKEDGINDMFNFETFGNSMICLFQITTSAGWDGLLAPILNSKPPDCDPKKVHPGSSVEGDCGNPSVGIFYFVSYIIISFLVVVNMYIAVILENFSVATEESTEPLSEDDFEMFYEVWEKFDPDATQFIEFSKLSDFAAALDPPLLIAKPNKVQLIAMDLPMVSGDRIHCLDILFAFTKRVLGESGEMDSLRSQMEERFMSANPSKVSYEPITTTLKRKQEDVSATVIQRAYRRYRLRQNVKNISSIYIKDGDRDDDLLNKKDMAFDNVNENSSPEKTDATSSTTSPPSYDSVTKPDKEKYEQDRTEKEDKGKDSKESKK

Row | SMILES | IC50
1 | CC[C@H](C)[C@H](NC(=O)[C@H](CCC(N)=O)NC(=O)[C@H](Cc1ccc(O)cc1)NC(=O)[C@H](CCCCN)NC(=O)[C@@H]1CSSC[C@@H]2NC(=O)[C@H](CCC(N)=O)NC(=O)[C@H](CC(=O)O)NC(=O)[C@H](CC(N)=O)NC(=O)[C@H](CO)NC(=O)[C@@H]3CCCN3C(=O)[C@H](CC(N)=O)NC(=O)[C@@H]3CSSC[C@H](NC(=O)[C@H](C(C)C)NC(=O)[C@H](CC(C)C)NC(=O)[C@H](CCCCN)NC(=O)[C@H](CO)NC(=O)[C@H](CO)NC(=O)[C@H](CCCCN)NC(=O)[C@H](CSSC[C@H](NC(=O)[C@@H](N)CCC(=O)O)C(=O)N[C@@H](CC(C)C)C(=O)N[C@@H](CCC(=O)O)C(=O)N[C@@H]([C@@H](C)CC)C(=O)N[C@@H](Cc4ccccc4)C(=O)N[C@@H](CCCCN)C(=O)N[C@@H](C)C(=O)N3)NC2=O)C(=O)N[C@@H](CO)C(=O)N[C@@H](CCCNC(=N)N)C(=O)N[C@@H](CCCCN)C(=O)N[C@@H]([C@@H](C)O)C(=O)N[C@@H](CCCNC(=N)N)C(=O)N[C@@H](Cc2c[nH]c3ccccc23)C(=O)N1)C(=O)O [HwTx-IV(acid)] | 463 to 727 nM and 727 nM and 463 nM
2 | CC[C@H](C)[C@H](NC(=O)[C@H](CCC(N)=O)NC(=O)[C@H](Cc1ccc(O)cc1)NC(=O)[C@H](CCCCN)NC(=O)[C@@H]1CSSC[C@@H]2NC(=O)[C@H](CCC(N)=O)NC(=O)[C@H](CC(=O)O)NC(=O)[C@H](CC(N)=O)NC(=O)[C@H](CO)NC(=O)[C@@H]3CCCN3C(=O)[C@H](CC(N)=O)NC(=O)[C@@H]3CSSC[C@H](NC(=O)[C@H](C(C)C)NC(=O)[C@H](CC(C)C)NC(=O)[C@H](CCCCN)NC(=O)[C@H](CO)NC(=O)[C@H](CO)NC(=O)[C@H](CCCCN)NC(=O)[C@H](CSSC[C@H](NC(=O)[C@@H](N)CCC(=O)O)C(=O)N[C@@H](CC(C)C)C(=O)N[C@@H](CCC(=O)O)C(=O)N[C@@H]([C@@H](C)CC)C(=O)N[C@@H](Cc4ccccc4)C(=O)N[C@@H](CCCCN)C(=O)N[C@@H](C)C(=O)N3)NC2=O)C(=O)N[C@@H](CO)C(=O)N[C@@H](CCCNC(=N)N)C(=O)N[C@@H](CCCCN)C(=O)N[C@@H]([C@@H](C)O)C(=O)N[C@@H](CCCNC(=N)N)C(=O)N[C@@H](Cc2c[nH]c3ccccc23)C(=O)N1)C(=O)NCC(N)=O [HwTx-IV^G36(amide)] | 33 ± 9 nM
3 | CC[C@H](C)[C@H](NC(=O)[C@H](CCC(N)=O)NC(=O)[C@H](Cc1ccc(O)cc1)NC(=O)[C@H](CCCCN)NC(=O)[C@@H]1CSSC[C@@H]2NC(=O)[C@H](CCC(N)=O)NC(=O)[C@H](CC(=O)O)NC(=O)[C@H](CC(N)=O)NC(=O)[C@H](CO)NC(=O)[C@@H]3CCCN3C(=O)[C@H](CC(N)=O)NC(=O)[C@@H]3CSSC[C@H](NC(=O)[C@H](C(C)C)NC(=O)[C@H](CC(C)C)NC(=O)[C@H](CCCCN)NC(=O)[C@H](CO)NC(=O)[C@H](CO)NC(=O)[C@H](CCCCN)NC(=O)[C@H](CSSC[C@H](NC(=O)[C@@H](N)CCC(=O)O)C(=O)N[C@@H](CC(C)C)C(=O)N[C@@H](CCC(=O)O)C(=O)N[C@@H]([C@@H](C)CC)C(=O)N[C@@H](Cc4ccccc4)C(=O)N[C@@H](CCCCN)C(=O)N[C@@H](C)C(=O)N3)NC2=O)C(=O)N[C@@H](CO)C(=O)N[C@@H](CCCNC(=N)N)C(=O)N[C@@H](CCCCN)C(=O)N[C@@H]([C@@H](C)O)C(=O)N[C@@H](CCCNC(=N)N)C(=O)N[C@@H](Cc2c[nH]c3ccccc23)C(=O)N1)C(=O)NCC(=O)O [HwTx-IV^G36(acid)] | 190 nM and 195 nM
